Patent publication US20190374543A1, “Therapeutic Combinations of an Antifolate and a BTK Inhibitor” (Acerta Pharma B.V., priority 2016, published 2019)

Assays:
Type in all cases: in vivo
BTK = molecular target: T1, BTK (Mus musculus, UniProt P35991); assay: BTK occupancy in splenocytes collected after euthanasia; conditions: with vs without MTX co-treatment
T1 construct: from tissue; host or cells: splenocytes from spleens of collagen-induced-arthritis DBA/1 mice
Description: (§1) On study day 43, mice were euthanized and necropsy specimens were obtained. After terminal bleeds, animals were euthanized by cervical dislocation. Fore paws, hind paws, and knees were harvested and placed in 10% neutral buffered formalin (NBF) for microscopy. Spleens were harvested from a subset of mice and processed for splenocytes.

[1] = tested on: type II collagen arthritis; assay: mouse type II collagen arthritis model: body weight, daily clinical arthritis scores (AUC), incidence
[2] = tested on: type II collagen arthritis; assay: histopathology of paws and knees in mouse type II collagen arthritis model; conditions: for Histopathology Summed Scores (All Joints): mean (SE)
Description: as §1
After 1-2 days in fixative and 4-5 days in 5% formic acid for decalcification, tissues were trimmed, and processed for paraffin embedding. Paws were embedded in paraffin in the frontal plane and knees were embedded with the patella facing down. Ankles, if left attached to the hind paw, were also embedded in the frontal plane but in some instances were detached and sectioned in the sagittal plane for special purposes. Left/right pairs were typically embedded in the same block. Sections were then cut and stained with toluidine blue.
When scoring paws or ankles from mice with lesions of type II collagen arthritis, severity of changes as well as number of individual joints affected was considered. When only one to three joints of the paws or ankles out of a possibility of numerous metacarpal/metatarsal/digit or tarsal/tibiotarsal joints was affected, an arbitrary assignment of a maximum score of 0.5, 1, 2 or 3 for parameters below was given depending on severity of changes. If more than three joints were involved, the criteria below were applied to the most severely affected/majority of joints. In the case of knees, severity of changes in medial and lateral, as well as femoropatellar spaces, were considered.
The following parameters were scored according to the indicated criteria: Inflammation Score, Pannus Score, Cartilage Damage Score, Bone Resorption Score, and Periosteal New Bone Formation Score and Measurements. Unless otherwise indicated, criteria apply to both paws and knees. Mean values for each parameter are determined separately for the paws, knees, and the entire animal (if applicable).
The Inflammation Score was determined based on the following criteria for Paw Score and Knee Score.
The Paw Score was classified based on the following criteria: 0=Normal; 0.5=Very minimal, affects only 1 joint or minimal multifocal periarticular infiltration of inflammatory cells; 1=Minimal infiltration of inflammatory cells in synovium and periarticular tissue of affected joints; 2=Mild infiltration of inflammatory cells. If referring to paws, generally restricted to affected joints (1-3 affected); 3=Moderate infiltration with moderate edema. If referring to paws, restricted to affected joints, generally 3-4 joints and the wrist or ankle; 4=Marked infiltration affecting most areas with marked edema, 1 or 2 unaffected joints may be present; 5=Severe diffuse infiltration with severe edema affecting all joints (to some extent) and periarticular tissues.
The Knee Score was classified based on the following criteria: 0=Normal; 0.5=Very minimal, affects only one area of the synovium or minimal multifocal periarticular infiltration of inflammatory cells; 1=Minimal infiltration of inflammatory cells in synovium and periarticular tissue of affected synovial areas; 2=Mild diffuse infiltration of inflammatory cells; 3=Moderate diffuse infiltration of inflammatory cells; 4=Marked diffuse infiltration of inflammatory cells; 5=Severe diffuse infiltration of inflammatory cells.
The inflammatory infiltrate in mice and rats with type II collagen arthritis consists of neutrophils and macrophages with smaller numbers of lymphocytes when the lesions are in the acute to subacute phase. Tissue edema and neutrophil exudates within the joint space are common in the acute to subacute phase. As the inflammation progresses to chronic, mononuclear inflammatory cells (monocytes, lymphocytes) predominate and fibroblast proliferation, often with deposition of metachromatic matrix, occurs in synovium and periarticular tissue. Exudate is less common in the joint space.

[3] = 5 mg/kg Formula (2) alone, vs vehicle controls
[4] = Group 3: MTX vehicle + BTK inhibitor of formula (2) 1 mg/kg PO QD d28-43
[5] = Group 4: MTX vehicle + BTK inhibitor of formula (2) 5 mg/kg PO QD d28-43
[6] = Group 5: MTX 0.3 mg/kg PO QD d18-43 + BTK inhibitor of formula (2) vehicle
[7] = Group 6: MTX 0.5 mg/kg PO QD d18-43 + BTK inhibitor of formula (2) vehicle

T1 sequence (P35991 whole entry): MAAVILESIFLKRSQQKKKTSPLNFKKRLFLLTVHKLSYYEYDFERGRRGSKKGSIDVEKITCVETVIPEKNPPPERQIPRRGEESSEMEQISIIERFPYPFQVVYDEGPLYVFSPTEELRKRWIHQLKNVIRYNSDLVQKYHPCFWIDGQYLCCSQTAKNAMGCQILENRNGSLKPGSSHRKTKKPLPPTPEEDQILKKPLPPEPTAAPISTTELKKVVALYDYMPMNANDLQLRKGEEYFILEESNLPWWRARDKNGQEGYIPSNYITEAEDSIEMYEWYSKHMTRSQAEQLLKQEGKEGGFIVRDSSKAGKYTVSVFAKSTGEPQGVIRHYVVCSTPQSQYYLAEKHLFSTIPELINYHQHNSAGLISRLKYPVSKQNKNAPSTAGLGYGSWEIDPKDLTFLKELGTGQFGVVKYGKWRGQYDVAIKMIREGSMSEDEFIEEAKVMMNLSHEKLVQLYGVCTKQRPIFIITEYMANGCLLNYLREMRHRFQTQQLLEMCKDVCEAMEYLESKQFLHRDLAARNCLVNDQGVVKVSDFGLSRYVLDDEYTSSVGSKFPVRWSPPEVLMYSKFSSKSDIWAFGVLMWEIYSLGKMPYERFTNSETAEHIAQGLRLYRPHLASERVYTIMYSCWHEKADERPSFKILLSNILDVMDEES

CC#CC(=O)N1CCC[C@H]1c1nc(-c2ccc(C(=O)Nc3ccccn3)cc2)c2c(N)nccn12 [BTK inhibitor of Formula (2), (S)-4-(8-amino-3-(1-(but-2-ynoyl)pyrrolidin-2-yl)imidazo[1,5-c]pyrazin-1-yl)-N-(pyridin-2-yl)benzamide]
Btk occupancy in splenocytes (BTK): the same in the presence or absence of MTX | disease-induced body weight loss (percent change from baseline) ([1]; 1 mg/kg Formula (2), vs vehicle controls, Day 36): significantly inhibited | daily clinical arthritis scores over time [1, 3]: differed significantly | inhibition of absolute body weight loss at study termination [1, 3]: 66% | reduction of arthritis scores AUC Days 18-43 [1, 3]: 62% | disease-induced body weight loss (percent change from baseline) ([1]; 5 mg/kg Formula (2), vs vehicle controls, Days 32-38 and 43): significantly inhibited | clinical arthritis scores ([1]; 5 mg/kg Formula (2), vs vehicle controls, Study Days 30-43): significantly reduced | Change in Body Weight (g) Day 18-43 [1, 4]: -0.19 g | Clinical Arthritis Score AUC Day 18-43 [1, 4]: 61.41 | Clinical Arthritis Score AUC Day 28-43 [1, 4]: 54.81 | Percent Incidence [1, 4]: 100% | Change in Body Weight (g) Day 18-43 [1, 5]: *0.12 g | Clinical Arthritis Score AUC Day 18-43 [1, 5]: *27.30 | Clinical Arthritis Score AUC Day 28-43 [1, 5]: *21.27 | Percent Incidence ([1]; Group 4: MTX vehicle + BTK inhibitor of formula (2) 5 mg/kg PO QD d28-43, at termination, 5 mg/kg): 42% | Percent Incidence ([1]; Group 4: MTX vehicle + BTK inhibitor of formula (2) 5 mg/kg PO QD d28-43, at termination, listed as BTK inhibitor of formula (2), 5 mg/kg): 42% | reduction of knee bone resorption [2, 3]: 90% | reduction of knee inflammation [2, 3]: 72% | reduction of knee pannus formation [2, 3]: 85% | reduction of summed knee histopathology scores [2, 3]: 74% | reduction of summed paw histopathology scores [2, 3]: 72% | reduction of summed six-joint mean histopathology scores [2, 3]: 73% | reductions of all paw histopathology parameters [2, 3]: 59-82% | reductions of all six-joint mean histopathology parameters [2, 3]: 63-82% | reductions of paw and six-joint mean periosteal bone widths [2, 3]: 82-83% | Histopathology Summed Scores (All Joints) [2, 4]: 11.03 (1.01) | Histopathology Summed Scores (All Joints) [2, 5]: *4.15 (1.01)

CN(Cc1cnc2nc(N)nc(N)c2n1)c1ccc(C(=O)N[C@@H](CCC(=O)O)C(=O)O)cc1 [MTX, (2S)-2-[(4-{[(2,4-Diaminopteridin-6-yl)methyl](methyl)amino}benzoyl)amino]pentanedioic acid, reference compound]
daily clinical arthritis scores over time ([1]; 0.5 mg/kg MTX alone, vs vehicle controls): differed significantly | clinical arthritis scores ([1]; 0.5 mg/kg MTX, vs vehicle controls, Days 25-29): significantly reduced | Change in Body Weight (g) Day 18-43 [1, 6]: -1.16 g | Clinical Arthritis Score AUC Day 18-43 [1, 6]: 51.72 | Clinical Arthritis Score AUC Day 28-43 [1, 6]: 48.82 | Percent Incidence [1, 6]: 100% | Change in Body Weight (g) Day 18-43 [1, 7]: -0.83 g | Clinical Arthritis Score AUC Day 18-43 [1, 7]: 46.79 | Clinical Arthritis Score AUC Day 28-43 [1, 7]: 45.51 | Percent Incidence [1, 7]: 100% | Histopathology Summed Scores (All Joints) [2, 6]: 10.24 (1.66) | Histopathology Summed Scores (All Joints) [2, 7]: 8.46 (1.36)
